For the experiment, the target named is HIF PHD2 (Homo sapiens, UniProt Q9GZT9). The experiment in a line: PHD2 inhibition assay (TR-FRET, VCB-Eu detection of hydroxylated P564-HIF1α peptide). Format: biochemical. As to conditions: 2 nM PHD2, 100 nM P564-HIF1α peptide, 0.25 μM 2-oxoglutarate, 100 μM FeCl2, 2 mM ascorbic acid, pH 6. The protocol: Inhibition of HIF PHD2 activity was quantified utilizing the TR-FRET technology. HIF PHD2 catalyzes a hydroxyl modification on the proline residue of the P564-HIF1α peptide substrate (Biotin-[…] (SEQ ID NO: 7)) resulting in recognition and binding of the europylated Von Hippel-Lindau protein (pVHL), elongin B and elongin C heterotrimeric (VCB-Eu) complex.
Sequence of HIF PHD2 (Q9GZT9 whole entry): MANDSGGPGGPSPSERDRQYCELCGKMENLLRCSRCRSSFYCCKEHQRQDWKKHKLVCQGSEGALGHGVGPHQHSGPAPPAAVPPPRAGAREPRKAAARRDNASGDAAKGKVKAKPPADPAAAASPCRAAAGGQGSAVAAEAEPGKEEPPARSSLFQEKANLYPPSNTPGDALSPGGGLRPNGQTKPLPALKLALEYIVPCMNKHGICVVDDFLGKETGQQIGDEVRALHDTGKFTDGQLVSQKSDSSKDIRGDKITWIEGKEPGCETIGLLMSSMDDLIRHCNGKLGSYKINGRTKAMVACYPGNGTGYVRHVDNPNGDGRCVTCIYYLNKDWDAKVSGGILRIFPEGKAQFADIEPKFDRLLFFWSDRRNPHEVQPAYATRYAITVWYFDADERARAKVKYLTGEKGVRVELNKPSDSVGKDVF
The PHD2 inhibition assay was executed by addition of freshly dissolved FeCl2 to 178.57 μM (100 μM final concentration) in PHD2 Reaction Buffer containing 30 mM MES, pH 6, 10 mM NaCl, 0.25% Brij-35, 0.01% BSA, and 1% DMSO. 28 μL of the iron solution and 2 μL of inhibitor compounds serially diluted in 100% DMSO (5% DMSO final) were added to black polypropylene 96-well microtiter plates. To that, 10 μL of 10 nM PHD2 (2 nM final) was added to all wells of the plate except for the 8 wells of column 12 (LO control), and allowed to incubate at room temperature on the shaker for one hour. Column 6 was the HI control containing PHD2 enzyme and 5% DMSO vehicle, but no inhibitor compound. To initiate the PHD2 enzymatic reaction, 10 μL of a solution containing 500 nM P564-HIF1α peptide (100 nM final), 10 mM ascorbic acid (2 mM final), and 1.25 μM 2-oxoglutarate (α-ketoglutarate; 0.25 μM final) in PHD2 Reaction Buffer was added to all wells of the plate and allowed to incubate on the shaker at room temperature for one hour.
The reaction was terminated by addition of 25 μL TR-FRET Buffer (50 mM TRIS-HCl, pH 9, 100 mM NaCl, 0.05% BSA, and 0.5% Tween-20) containing 150 mM succinate (product inhibitor; 50 mM final), 75 nM streptavidin-APC (25 nM final), and 7.5 nM VCB-Eu (2.5 nM final). The TR-FRET detection reagents were placed on a shaker for 1 hour to reach binding equilibrium before reading on the Discovery platform (PerkinElmer). Europium is excited at 315 nm and phosphoresces at 615 nm with a large Stoke's shift. APC, in turn, emits at 655 nm upon excitation at 615 nm. The TR-FRET signal is measured as the ratio of the APC 655 nm signal divided by the internal europium reference 615 nm emission signal.
The POC (percentage of control) was determined by comparing the signal from hydroxylated peptide substrate in the enzyme reaction containing inhibitor compound with that from PHD2 enzyme with DMSO vehicle alone (HI control), and no enzyme (LO control). POC was calculated using the formula: % control (POC)=(cpd−average LO)/(average HI−average LO)*100. Data (consisting of POC and inhibitor concentration in μM) was fitted to a 4-parameter equation (y=A+((B−A)/(1+((x/C)^D))), where A is the minimum y (POC) value, B is the maximum y (POC), C is the x (cpd concentration) at the point of inflection and D is the slope factor) using a Levenburg-Marquardt non-linear regression algorithm.
In general terms: TR-FRET usually uses a lanthanide donor and a delayed reading to cut background.
Usually IC50 stands for the point on the concentration scale where inhibition reaches its midpoint. A higher IC50 goes with weaker potency in that assay. `Cc1ccccc1-c1ncc2c(O)c(C(=O)NCC(=O)O)c(=O)n(C)c2n1` [Example 50, 2-(5-hydroxy-8-methyl-7-oxo-2-o-tolyl-7,8-dihydropyrido[2,3-d]pyrimidine-6-carboxamido)acetic acid]: the IC50 was determined as 3.6 nM. This lies in the single-digit nanomolar range. The result for `Cn1c(=O)c(C(=O)NCC(=O)O)c(O)c2cnc(-c3ccccc3F)nc21` [Example 26, 2-(2-(2-fluorophenyl)-5-hydroxy-8-methyl-7-oxo-7,8-dihydropyrido[2,3-d]pyrimidine-6-carboxamido)acetic acid] reads 1.5 nM. As to `Cc1ccc(S(=O)(=O)n2cc(-c3ncc4c(O)c(C(=O)NCC(=O)O)c(=O)n(C)c4n3)c3ccccc32)cc1` [Example 58, 2-(5-hydroxy-8-methyl-7-oxo-2-(1-tosyl-1H-indol-3-yl)-7,8-dihydropyrido[2,3-d]pyrimidine-6-carboxamido)acetic acid], the IC50 worked out at 42 nM. Compared with the last compound, the IC50 is about 28-fold higher. Turning to `Cn1ccc2cc(-c3ncc4c(O)c(C(=O)NCC(=O)O)c(=O)n(C)c4n3)ccc21` [Example 44, 2-(5-hydroxy-8-methyl-2-(1-methyl-1H-indol-5-yl)-7-oxo-7,8-dihydropyrido[2,3-d]pyrimidine-6-carboxamido)acetic acid], half-maximal inhibition (IC50) required 7.8 nM.

The compound `Cn1c(=O)c(C(=O)NCC(=O)O)c(O)c2cnc(C#CC3CC3)nc21` [Example 23, 2-(2-(2-cyclopropylethynyl)-5-hydroxy-8-methyl-7-oxo-7,8-dihydropyrido[2,3-d]pyrimidine-6-carboxamido)acetic acid] gave an IC50 of 12 nM. `Cn1c(=O)c(C(=O)NCC(=O)O)c(O)c2cnc(N3CCCCC3)nc21` [Example 11, 2-(5-hydroxy-8-methyl-7-oxo-2-(piperidin-1-yl)-7,8-dihydropyrido[2,3-d]pyrimidine-6-carboxamido)acetic acid] registered an IC50 of 16 nM. `Cn1c(=O)c(C(=O)NCC(=O)O)c(O)c2cnc(N3CCCC4CCCCC43)nc21` (stereo not drawn) [Example 21, 2-(5-hydroxy-8-methyl-2-(octahydroquinolin-1(2H)-yl)-7-oxo-7,8-dihydropyrido[2,3-d]pyrimidine-6-carboxamido)acetic acid] had an IC50 of 152 nM. Consider `Cn1c(=O)c(C(=O)NCC(=O)O)c(O)c2cc(-c3cccs3)nnc21` [Example 3, 2-(5-hydroxy-8-methyl-7-oxo-3-(thiophen-2-yl)-7,8-dihydropyrido[2,3-c]pyridazine-6-carboxamido)acetic acid], for which the IC50 was 22 nM. On to `Cn1c(=O)c(C(=O)NCC(=O)O)c(O)c2cnc(-c3cccc(Cl)c3)nc21` [Example 43, 2-(2-(3-chlorophenyl)-5-hydroxy-8-methyl-7-oxo-7,8-dihydropyrido[2,3-d]pyrimidine-6-carboxamido)acetic acid], for which half-maximal inhibition (IC50) was put at 7.9 nM. The compound `Cn1c(=O)c(C(=O)NCC(=O)O)c(O)c2cnc(-c3ccc4ccccc4c3)nc21` [Example 41, 2-(5-hydroxy-8-methyl-2-(naphthalen-2-yl)-7-oxo-7,8-dihydropyrido[2,3-d]pyrimidine-6-carboxamido)acetic acid] displayed an IC50 of 9.4 nM. This IC50 and that of the compound before are within 1.5-fold of each other. Under `Cn1c(=O)c(C(=O)NCC(=O)O)c(O)c2cnc(-c3ccc(Cl)cc3)nc21` [Example 39, 2-(2-(4-chlorophenyl)-5-hydroxy-8-methyl-7-oxo-7,8-dihydropyrido[2,3-d]pyrimidine-6-carboxamido)acetic acid] stands 7.8 nM.

For `CCC1CCC(C)N(c2ncc3c(O)c(C(=O)NCC(=O)O)c(=O)n(C)c3n2)C1` (stereo not drawn) [Example 20, 2-(2-(5-ethyl-2-methylpiperidin-1-yl)-5-hydroxy-8-methyl-7-oxo-7,8-dihydropyrido[2,3-d]pyrimidine-6-carboxamido)acetic acid], the IC50 was 175 nM. Under `Cc1cccc(-c2ncc3c(O)c(C(=O)NCC(=O)O)c(=O)n(C)c3n2)c1` [Example 37, 2-(5-hydroxy-8-methyl-7-oxo-2-m-tolyl-7,8-dihydropyrido[2,3-d]pyrimidine-6-carboxamido)acetic acid] stands 8.8 nM; under `Cn1c(=O)c(C(=O)NCC(=O)O)c(O)c2cnc(-c3ccc(C#N)cc3)nc21` [Example 52, 2-(2-(4-cyanophenyl)-5-hydroxy-8-methyl-7-oxo-7,8-dihydropyrido[2,3-d]pyrimidine-6-carboxamido)acetic acid], 4.1 nM. The result for `COc1ccc(-c2ncc3c(O)c(C(=O)NCC(=O)O)c(=O)n(C)c3n2)cc1` [Example 33, 2-(5-hydroxy-2-(4-methoxyphenyl)-8-methyl-7-oxo-7,8-dihydropyrido[2,3-d]pyrimidine-6-carboxamido)acetic acid] reads 6.4 nM; that for `Cn1c(=O)c(C(=O)NCC(=O)O)c(O)c2cnc(-c3csc4ccccc34)nc21` [Example 40, 2-(2-(benzo[b]thiophen-3-yl)-5-hydroxy-8-methyl-7-oxo-7,8-dihydropyrido[2,3-d]pyrimidine-6-carboxamido)acetic acid], 13 nM; that for `Cn1c(=O)c(C(=O)NCC(=O)O)c(O)c2cnc(-c3ccc4occc4c3)nc21` [Example 48, 2-(2-(benzofuran-5-yl)-5-hydroxy-8-methyl-7-oxo-7,8-dihydropyrido[2,3-d]pyrimidine-6-carboxamido)acetic acid], 7.1 nM. `Cn1c(=O)c(C(=O)NCC(=O)O)c(O)c2cnc(-c3ccccc3N3CCOCC3)nc21` [Example 28, 2-(5-hydroxy-8-methyl-2-(2-morpholinophenyl)-7-oxo-7,8-dihydropyrido[2,3-d]pyrimidine-6-carboxamido)acetic acid] registered a 50% inhibitory concentration (IC50) of 2.9 nM. Against the preceding compound, the IC50 is about 2.4-fold lower. Under `Cn1c(=O)c(C(=O)NCC(=O)O)c(O)c2cnc(-c3ccco3)nc21` [Example 38, 2-(2-(furan-2-yl)-5-hydroxy-8-methyl-7-oxo-7,8-dihydropyrido[2,3-d]pyrimidine-6-carboxamido)acetic acid] stands 2.5 nM; under `Cn1c(-c2ncc3c(O)c(C(=O)NCC(=O)O)c(=O)n(C)c3n2)cc2ccccc21` [Example 57, 2-(5-hydroxy-8-methyl-2-(1-methyl-1H-indol-2-yl)-7-oxo-7,8-dihydropyrido[2,3-d]pyrimidine-6-carboxamido)acetic acid], 14 nM; under `Cn1c(=O)c(C(=O)NCC(=O)O)c(O)c2cnc(-c3ccoc3)nc21` [Example 30, 2-(2-(furan-3-yl)-5-hydroxy-8-methyl-7-oxo-7,8-dihydropyrido[2,3-d]pyrimidine-6-carboxamido)acetic acid], 5.3 nM.

As for `Cn1c(=O)c(C(=O)NCC(=O)O)c(O)c2cnc(-c3cccc(N4CCOCC4)c3)nc21` [Example 53, 2-(5-hydroxy-8-methyl-2-(3-morpholinophenyl)-7-oxo-7,8-dihydropyrido[2,3-d]pyrimidine-6-carboxamido)acetic acid], the IC50 was found to be 5 nM.

For `Cn1c(=O)c(C(=O)NCC(=O)O)c(O)c2cc(Cl)nnc21` [Example 1, 2-(3-chloro-5-hydroxy-8-methyl-7-oxo-7,8-dihydropyrido[2,3-c]pyridazine-6-carboxamido)acetic acid], the IC50 was 24 nM. Under `Cc1ccc(-c2ncc3c(O)c(C(=O)NCC(=O)O)c(=O)n(C)c3n2)cc1` [Example 47, 2-(5-hydroxy-8-methyl-7-oxo-2-p-tolyl-7,8-dihydropyrido[2,3-d]pyrimidine-6-carboxamido)acetic acid] stands 6.7 nM; under `Cn1c(=O)c(C(=O)NCC(=O)O)c(O)c2cnc(-c3cccnc3)nc21` [Example 55, 2-(5-hydroxy-8-methyl-7-oxo-2-(pyridin-3-yl)-7,8-dihydropyrido[2,3-d]pyrimidine-6-carboxamido)acetic acid], 4.45 nM. As for `Cn1c(=O)c(C(=O)NCC(=O)O)c(O)c2ncc(-c3ccccc3)nc21` [Example 18, 2-(8-hydroxy-5-methyl-6-oxo-3-phenyl-5,6-dihydropyrido[3,2-b]pyrazine-7-carboxamido)acetic acid], it took 8.8 nM to reach half-maximal inhibition (IC50).

Turning to `Cn1c(=O)c(C(=O)NCC(=O)O)c(O)c2cnc(-c3ccc4sccc4c3)nc21` [Example 51, 2-(2-(benzo[b]thiophen-5-yl)-5-hydroxy-8-methyl-7-oxo-7,8-dihydropyrido[2,3-d]pyrimidine-6-carboxamido)acetic acid], the midpoint of inhibition, the IC50, lay at 9.4 nM.

For the origin of these results see patent US8097620B2, “Diazaquinolones that inhibit prolyl hydroxylase activity” (Amgen Inc., priority 2007, dated 2012).
